The text below walks through data of EP0018104A2, “Tetrahydroisoquinolines, their production and the compounds and pharmaceutical compositions containing them for use in the prevention or treatment of hypertension” (Takeda Chemical Industries, Ltd., priority 1979, dated 1980).

The target in assay [1] is T1, angiotensin I converting enzyme (ACE) (Oryctolagus cuniculus, UniProt P12822).
T1 construct: prepared from the lungs of albino rabbit according to the method described by Wallace et al; from tissue; host or cells: lungs of albino rabbit
T1 sequence (P12822 34-1310): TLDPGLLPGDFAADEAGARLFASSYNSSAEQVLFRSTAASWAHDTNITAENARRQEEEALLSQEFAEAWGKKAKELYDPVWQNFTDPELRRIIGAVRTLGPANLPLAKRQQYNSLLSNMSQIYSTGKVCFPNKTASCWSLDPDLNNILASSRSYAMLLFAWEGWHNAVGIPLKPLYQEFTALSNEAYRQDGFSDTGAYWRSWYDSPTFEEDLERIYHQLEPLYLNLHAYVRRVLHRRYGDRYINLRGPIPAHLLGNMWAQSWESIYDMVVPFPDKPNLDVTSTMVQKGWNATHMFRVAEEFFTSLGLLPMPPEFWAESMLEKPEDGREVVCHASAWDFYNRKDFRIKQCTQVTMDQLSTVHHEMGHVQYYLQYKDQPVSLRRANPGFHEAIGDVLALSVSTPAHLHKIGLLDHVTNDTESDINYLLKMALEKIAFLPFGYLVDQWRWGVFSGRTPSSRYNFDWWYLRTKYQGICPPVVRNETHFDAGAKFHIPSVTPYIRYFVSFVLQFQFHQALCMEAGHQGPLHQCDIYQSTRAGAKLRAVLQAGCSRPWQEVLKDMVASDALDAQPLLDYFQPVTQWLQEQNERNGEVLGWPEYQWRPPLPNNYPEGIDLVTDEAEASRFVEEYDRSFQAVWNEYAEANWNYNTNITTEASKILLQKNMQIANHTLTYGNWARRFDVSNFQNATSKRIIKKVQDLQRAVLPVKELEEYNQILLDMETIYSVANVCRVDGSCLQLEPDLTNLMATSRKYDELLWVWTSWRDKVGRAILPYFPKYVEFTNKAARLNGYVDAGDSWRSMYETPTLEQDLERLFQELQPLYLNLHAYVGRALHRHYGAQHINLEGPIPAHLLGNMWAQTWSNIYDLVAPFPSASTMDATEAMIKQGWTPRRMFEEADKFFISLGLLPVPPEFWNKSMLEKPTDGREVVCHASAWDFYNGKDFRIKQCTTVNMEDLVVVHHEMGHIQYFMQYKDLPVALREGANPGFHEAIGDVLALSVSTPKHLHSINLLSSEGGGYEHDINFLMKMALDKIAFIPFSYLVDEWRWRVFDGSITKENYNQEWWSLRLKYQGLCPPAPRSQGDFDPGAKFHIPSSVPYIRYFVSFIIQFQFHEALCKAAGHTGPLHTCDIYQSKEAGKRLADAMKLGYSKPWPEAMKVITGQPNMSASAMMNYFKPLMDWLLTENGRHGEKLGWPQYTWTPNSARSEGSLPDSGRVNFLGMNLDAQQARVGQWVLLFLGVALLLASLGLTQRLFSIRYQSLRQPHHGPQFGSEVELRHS
The experiment in a line: Inhibition of angiotensin I converting enzyme (HHL substrate, hippuric acid colorimetry, modified Cushman method). The settings on record: ACE from rabbit lung, 37°C, one hour, read-out: Inhibitory Activity on ACE (%); for inhibition at 1 µM: Concentration 1 µM; for inhibition at 10 µM: Concentration 10 µM. Type of assay: biochemical, albino rabbit. The procedure:
Inhibitions of Angiotensin I Converting Enzyme by the Compounds of this Invention.
The experiment was conducted in accordance with a modification of the method described by Cushman et al. [Biochemical Pharmacology, Vol. 20, p1637(1971)] using an angiotensin I converting enzyme (ACE) prepared from the lungs of albino rabbit according to the method described by Wallace et al. [American Journal of Physiology, Vol 234, page R141(1978)]. That is, using hippuryl-L-histidyl-L-leucin (HHL) as the substrate, the ACE inhibitory activity was determined in terms of percentage inhibitation on the amount of hippurie acid produced by ACE when the present compound was added. A solution of the compound of the present invention dissolved in an 0.02 to 2% dimethyl sulfoxide-500 mMpotassium phosphate buffer solution (pH 8.3, containing 300 mM sodium chloride) was added to 100 µℓ of ACE (protein concentration, 20 mg/mℓ) and 100 µℓ of 1.25 mM HHL. In this experiment a potassium phosphate buffer solution containing dimethyl sulfoxide at a concentration equal to that of the test solution was used as a control. After incubating the solution at 37°C for one hour, 150 µℓ of 1N hydrochloric acid were added to the solution to terminate the reaction. After 1 mℓ of ethyl acetate was added, the solution was centrifuged at 3000 r.p.m. for 10 minutes. An 0.5 mℓ aliquot was separated from the ethyl acetate layer and dried at a temperature below 50°C under a nitrogen. gas stream. The residue was mixed with mℓ of 1M aqueous sodium chloride and the mixture was subjected to colorimetry at a wavelength of 228 nm.

Assay [2] deals with Hypertensive Activity of Angiotensin I. Description: Effect against hypertensive activity of angiotensin I in anaesthetized-cannulated rats after oral dosing. Type of assay: in vivo, Male rats (Sprague-Dawley). The settings on record: Rattus norvegicus, 138 µM/kg orally, corrected by angiotensin II response. The procedure: Male rats (Sprague-Dawley) weighing 230 to 350 g, which were fed under free access to drinking water and feeds, were used as experimental animals. The rats were anaesthetized with intraperitoneal administration of pentobarbital sodium (50 mg/kg) on the day before the test day, and a polyethylene tube was inserted into each femoral artery for measurement of blood pressare and the femoral vein for injection of angiotensin I and II, and then the tubes were fixed.
On the test day, an average blood pressure in the control phase was recorded on an electric haemedynamemeter (MP-4T model manufactured by Nippon Koden, Japan) and, thereafter, angiotensin I and then angionensin II were injected through the femoral vein at a dose of […] and 100 ng/kg, respectively, to measure the hypertensive activity. Then, 138 µM/kg of the compound of this invention were administrated orally as an aqueous solution or an aqueous gum arabic suspension, […], angiotensin I and II were injected repeatedly to trace hypertensive reactions. In calculating the percentage inhibition to the hypertensive activity of angiotensin 1, the percentage inhibitory value was corrected based on the variation with time in the hypertensive reaction by anziotensin II.

Where [3] appears, read: 20 min, After 20 min, read-out: Percent Inhibition (%) against Hyper-tensive Reaction by Angiotensin I After 20 min.
[4] abbreviates: 1 h, After 60 min, read-out: Percent Inhibition (%) against Hyper-tensive Reaction by Angiotensin I After 60 min.
Setting [5] is: 2 h, After 120 min, read-out: Percent Inhibition (%) against Hyper-tensive Reaction by Angiotensin I After 120 min.

Where two headings read alike, the source gives them in different places.

As for `CC(=O)SCC(C)C(=O)N1Cc2cc(O)c(O)cc2C[C@H]1C(=O)O` (stereo partly drawn) [Example 1, (3S)-2-(3-acetylthio-2-methylpropionyl)-6,7-dihydroxy-1,2,3,4-tetrahydroisoquinoline-5-carboxylie aeid], in assay [1], the inhibition at 1 µM amounted to 23% and the inhibition at 10 µM turned out to be 87%.
Take `CC(=O)SCC(C)C(=O)N1Cc2cc(C(C)(C)C)ccc2CC1C(=O)O` (stereo not shown) [Example 3, 2-(3-acetylthio-2-methylpropionyl)-7-tert-utyl-1,2,3,4-tetrahydroisoquinoline-3-carboxylic acid]: the inhibition in vivo at 138 µM, 138 µmol/kg came to 86% in assay [2] (setting [3]), 94% in assay [2] (setting [4]) and 90% in assay [2] (setting [5]).
Take `CC(=O)SCC(C)C(=O)N1Cc2cc3c(cc2CC1C(=O)O)CCCC3` (stereo not shown) [Example 4]: the inhibition in vivo at 138 µM, 138 µmol/kg was determined as 90% in assay [2] (setting [3]), 79% in assay [2] (setting [4]) and 63% in assay [2] (setting [5]).
Regarding `CC(=O)SCC(C)C(=O)N1[C@H](C)c2cc(O)c(O)cc2C[C@H]1C(=O)O` (stereo partly shown) [Example 5, (M, 3S)-2-(5-acetylthio-2-methylpropionyl)-6,7-dihycroxy-1-methyl-1,2,3,4-tetrahydroisquinoline-3-carboxylie acid], the results for the inhibition in vivo at 138 µM, 138 µmol/kg in assay [2] (setting [3]), in assay [2] (setting [4]) and in assay [2] (setting [5]) were 84%, 98% and 96%, respectively.
For `COc1cc2c(cc1OC)CN(C(=O)C(C)CSC(C)=O)C(C(=O)O)C2` (stereo not shown) [Example 6, 2-(3-acetylthio-2-methylpropionyl)-6,7-dimethoxy-1,2,3,4-tetrahydroisoquinoline-3-carboxylic aeid], in assay [1], the inhibition at 1 µM was determined as 62% and the inhibition at 10 µM was 99%.
For `CC(=O)SCC(C)C(=O)N1Cc2cc(C)ccc2CC1C(=O)O` (stereo not shown) [Example 7], in assay [1], the inhibition at 1 µM came out at 63% and the inhibition at 10 µM is 88%.
The corresponding values for `COc1cc2c(cc1O)CN(C(=O)C(C)CSC(C)=O)C(C(=O)O)C2` (stereo not shown) [Example 14, 2-(3-acetylthio-2-methylpropionyl)-7-hydroxy-6-methoxy-1,2,3,4-tetrahydroisoquinoline-3-carbxylic acid] are 33% and 90%.
For the compound `CC(=O)SCC(C)C(=O)N1Cc2ccc(O)cc2CC1C(=O)O` (stereo not shown) [Example 19, 2-(3-acetylthio-2-methylpropionyl)-6-hydroxy-1,2,3,4-tetrahydroisoquinoline-3-carboxylic acid], in assay [1], the inhibition at 1 µM turned out to be 61% and the inhibition at 10 µM was 98%.
Turning to `COc1ccc2c(c1)CN(C(=O)C(C)CSC(C)=O)C(C(=O)O)C2` (stereo not shown) [Example 23, 2-(3-acetylthio-2-methylpropionyl)-7-methoxy-1,2, 3.4-tetrahydroisoquinoline-3-carboxylic acid], the inhibition in vivo at 138 µM, 138 µmol/kg in assay [2] (setting [3]) is 80%; in assay [2] (setting [4]) it was 82%; in assay [2] (setting [5]), 87%.
Regarding `CC(=O)SCC(C)C(=O)N1Cc2cc(N3CCCC3)ccc2CC1C(=O)O` (stereo not shown) [Example 43], the inhibition in vivo at 138 µM, 138 µmol/kg was found to be 100% in assay [2] (setting [3]), 95% in assay [2] (setting [4]) and 87% in assay [2] (setting [5]).
Consider `CC(CS)C(=O)N1Cc2cc(C(C)(C)C)ccc2C[C@H]1C(=O)O` (stereo partly drawn) [Example 51, (3S)-7-tert-butyl-2-(3-mercapto-2-methylproplonyl)-1,2,3,4-tetrahydroisoquinoline-3-carboxylic acid], for which the values for the inhibition in vivo at 138 µM, 138 µmol/kg in assay [2] (setting [3]), in assay [2] (setting [4]) and in assay [2] (setting [5]) were 100%, 100% and 78%, respectively.
As for `CC(=O)SCC(CSC(C)=O)C(=O)N1Cc2cc(O)c(O)cc2C[C@H]1C(=O)O` [Example 56, (S)-2-(3-acetylthio-2-acetylthiomethyl-propionyl)-6,7-dihydroxy-1,2,3,4-tetrahydroisoquinoline-3-carboxylic acid], the inhibition in vivo at 138 µM, 138 µmol/kg in assay [2] (setting [3]) worked out at 80%; in assay [2] (setting [4]), 84%; in assay [2] (setting [5]) it was 69%.
`CC(=O)SCC(CSC(C)=O)C(=O)N1Cc2cc3c(cc2CC1C(=O)O)CCCC3` (stereo not shown) [Example 58, 2-(3-acetylthio-2-acetylthiomethylpropionyl)-1,2,3,4,6,7,8,9-octahydrobenzo[g]isoquinoline-3--carboxylic aeid]: the inhibition in vivo at 138 µM, 138 µmol/kg in assay [2] (setting [3]) was found to be 80%; in assay [2] (setting [4]), 78%; in assay [2] (setting [5]), 66%.
Regarding `CC(=O)SCC(CSC(C)=O)C(=O)N1Cc2ccc(O)cc2CC1C(=O)O` (stereo not shown) [Example 60, 2-(3-acetylthio-2-acetylthiomethylpropionyl)-6-hydroxy-1,2,3,4-tetrahydroisoquinoline-3-carboxylic acid], the inhibition in vivo at 138 µM, 138 µmol/kg in assay [2] (setting [3]) was determined as 82%; in assay [2] (setting [4]), 77%; in assay [2] (setting [5]), 71%.
As to `CC(=O)SCC(CSC(C)=O)C(=O)N1Cc2cc(C(C)C)ccc2CC1C(=O)O` (stereo not shown) [Example 61, 2-(3-aeetylthio-2-acetylthiomethylpropionyl)-7-isopropyl-1,2,3,4-tetrahydroisoquinoline-3-carboxylic acid], the inhibition in vivo at 138 µM, 138 µmol/kg in assay [2] (setting [3]) was 78%; in assay [2] (setting [4]), 84%; in assay [2] (setting [5]) it was 58%.
Take `O=C(O)C1Cc2cc3c(cc2CN1C(=O)C(CS)CS)OCO3` (stereo not shown) [Example 69, 2-(3-mercapto-2-mercapthylpropionyl)-6,7-methylenedioxy-1,2,3,4-tetrahydroisooquinoline-3-carboxylic acid]: the figures for the inhibition in vivo at 138 µM, 138 µmol/kg in assay [2] (setting [3]), in assay [2] (setting [4]) and in assay [2] (setting [5]) were 95%, 77% and 76%, respectively.
